Assay results published in patent publication US9115145B2, “Tocotrienol derivatives and associated methods” (FIRST TECH INTERNATIONAL LIMITED, priority 2011, dated 2015).
Where two headings read alike, the source gives them in different places.

Key:
[1] = test system: 60 human tumor cell lines; assay: NCI in vitro screening against 60 human cell lines, single concentration; assay type: cell-based; conditions: 10 μM dose; negative values indicate cytotoxicity
Procedure: Compounds selected from Compounds 3-44 were provided to the National Cancer Institute for in vitro screening against 60-human cell lines for their ability to inhibit the growth of tumor cells in a full panel representing nine different organs (blood, lung, colon, CNS, skin, ovary, kidney, prostate, and breast). The compounds were tested at a single concentration of 10 μM, and the percentages of growth inhibitions over the sixty tested cell lines were determined. Compounds showing the highest activity were chosen for secondary assays using five different compound concentrations.
The human tumor cell lines of the cancer screening panel were grown in RPMI 1640 medium containing 5% fetal bovine serum and 2 mM L-glutamine. For a typical screening experiment, cells are inoculated into 96 well microtiter plates in 100 μL at plating densities ranging from 5000 to 40,000 cells/well depending on the doubling time of individual cell lines. After cell inoculation, the microtiter plates are incubated at 37° C., 5% CO2, 95% air and 100% relative humidity for 24 hours prior to addition of experimental drugs. After 24 hours, two plates of each cell line are fixed in situ with Trichloroacetic acid (“TCA”), to represent a measurement of the cell population for each cell line at the time of drug addition. Experimental drugs are solubilized in dimethyl sulfoxide at 400-fold the desired final maximum test concentration and stored frozen prior to use. At the time of drug addition, an aliquot of frozen concentrate is thawed and diluted to twice the desired final maximum test concentration with complete medium containing 50 ng/mL gentamicin. An aliquot of 100 μL of this drug dilution is added to the appropriate microtiter wells already containing 100 μL of medium, resulting in the required final drug concentrations. Following drug addition, the plates are incubated for an additional 48 h at 37° C., 5% CO2, 95% air, and 100% relative humidity. For adherent cells, the assay is terminated by the addition of cold TCA. Cells are fixed in situ by the gentle addition of 50 μL of cold 50% (w/v) TCA (final concentration, 10% TCA) and incubated for 60 min at 4° C. The supernatant is discarded, and the plates are washed five times with tap water and air dried. Sulforhodamine B (SRB) solution (100 μL) at 0.4% (w/v) in 1% acetic acid is added to each well, and plates are incubated for 10 min at room temperature. After staining, unbound dye is removed by washing five times with 1% acetic acid and the plates are air dried. Bound stain is subsequently solubilized with 10 mM trizma base, and the absorbance is read on an automated plate reader at a wavelength of 515 nm. For suspension cells, the methodology is the same except that the assay is terminated by fixing settled cells at the bottom of the wells by gently adding 50 μL of 80% TCA (final concentration, 16% TCA). FIGS. 37-74 indicate the growth inhibition effects of selected Compounds against a variety of cell lines based on the above described testing configuration. FIGS. 37-74 present the Growth percent for a given compound against the cell lines and both values and a bar chart of the difference between the mean growth percent and the growth percent which is an indication of the selectivity of the compound for that particular cell line.

[2] = test system: +SA mammary epithelial cells; assay: MTT assay of +SA cells (antiproliferative activity); assay type: cell-based, mouse; conditions: 24 hours treatment, read-out: IC50 antiproliferative activity against +SA mammary epithelial cells
Outline: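 Mouse +SA mammary adenocarcinoma cells in serum-free DMEM/F12 were grown 3 days, then treated 24 h with BSA-conjugated compounds (0–40 μM; DMSO <0.1%). Viable cell number came from MTT (570 nm) against a cell standard curve. IC50 was derived by linear regression.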

Row | SMILES | mean percent growth across all 60 cell lines (mean 60) [1] | IC50 [2] [µM] | IC50 ([2]; Mus musculus, +SA cell) [µM]
1 | CC(C)=CCC/C(C)=C/CC/C(C)=C/CC[C@]1(C)CCc2cc(O)c(C)c(C)c2O1 [Compound 1, γ-tocotrienol, reference compound] | inactive | 4 | –
2 | COc1ccc(CCNCc2c(O)c(C)c(C)c3c2CC[C@@](C)(CC/C=C(\C)CC/C=C(\C)CCC=C(C)C)O3)cc1OC [Compound 30, (R)-5-((3,4-dimethoxyphenethylamino)methyl)-2,7,8-trimethyl-2-((3E,7E)-4,8,12-trimethyltrideca-3,7,11-trienyl)chroman-6-ol] | comparable to the activity of Compound 1 | – | 3.19
